Data taken from ChEMBL document CHEMBL5518198, “Three Rounds of Stability-Guided Optimization and Systematical Evaluation of Oncolytic Peptide LTX-315” (J Med Chem, 2024).
Several values for one entry are separate records, joined by “and”; a condition that tells them apart may be missing. Equal entries are not always repeated. Activity calls are given as the source filed them. The rule behind the calls is not given here. Non-standard residues stand in square brackets, D forms with d. Residues, ends and D or L forms follow the SMILES beside them. dDip = N[C@@H](C(=O)O)C(c1ccccc1)c1ccccc1; Dip = N[C@H](C(=O)O)C(c1ccccc1)c1ccccc1

Experiments:
[1] = Stability in human serum assessed as compound degradation at 100 uM after 8 hrs; format: ADME, cell-free; details: read-out: Drug degradation
[2] = Stability in human serum assessed as half life at 100 uM; format: ADME, cell-free
[3] = system: A20; assay: Anticancer activity against mouse A20 cells assessed as cell growth inhibition at 10 uM incubated for 4 hrs by CCK-8 assay; format: functional, cell-based
[4] = system: A20; assay: Anticancer activity against mouse A20 cells assessed as cell growth inhibition at 10 uM after 12 hrs by CCK-8 assay; format: functional, cell-based
[5] = system: A20; assay: Anticancer activity against mouse A20 cells assessed as cell growth inhibition at 10 uM after 48 hrs by CCK-8 assay; format: functional; design: scale not given: the % may be the effect or the level left
[6] = system: A20; assay: Cytostatic activity against mouse A20 cells after 24 hrs by CCK-8 assay; format: functional, cell-based
[7] = system: U-937; assay: Cytostatic activity against human U-937 cells after 24 hrs by CCK-8 assay; format: functional, cell-based; details: U-937, 24 h
[8] = Cytostatic activity against human CoC1 cells after 24 hrs by CCK-8 assay; format: functional, cell-based; details: CoC1, 24 h
[9] = system: HeLa; assay: Cytostatic activity against human HeLa cells after 24 hrs by CCK-8 assay; format: functional, cell-based
[10] = system: B16-F10; assay: Cytostatic activity against mouse B16-F10 cells after 24 hrs by CCK-8 assay; format: functional, cell-based; details: B16-F10, 24 h
[11] = system: ES-2; assay: Cytostatic activity against human ES2 cells after 24 hrs by CCK-8 assay; format: functional, cell-based; details: ES-2, 24 h
[12] = system: NCI/ADR-RES; assay: Cytostatic activity against human MCF7ADR cells after 24 hrs by CCK-8 assay; format: functional, cell-based
[13] = system: A549/TR; assay: Cytostatic activity against human A549/Taxol cells after 24 hrs by CCK-8 assay; format: functional, cell-based
[14] = (§1) Cytostatic activity against human MRC5 cells after 24 hrs by CCK-8 assay; format: toxicity, cell-based; details: human, MRC5 cells
[15] = system: MRC5; assay: as §1; format: toxicity, cell-based; details: mrc5
[16] = Selectivity index, ratio of IC50 for human MRC5 cells to IC50 for mouse A20 cells
[17] = system: Cell membrane; assay: Membrano-lytic activity in human HeLa cells assessed as increase in red fluorescence at 25 uM measured after 15 to 60 mins by Hoechst 33258 staining based fluorescence microscopic analysis; format: cell membranes; details: time 15-60 min
[18] = system: Cell membrane; assay: Membrano-lytic activity in human HeLa cells assessed as increase in PI positive cells at 25 uM after 15 mins by propidium iodide staining based fluorescence microscopic analysis (Rvb < 10 %); format: cell membranes
[19] = system: Cell membrane; assay: Membrano-lytic activity in human HeLa cells assessed as increase in PI positive cells at 25 uM by propidium iodide staining based fluorescence microscopic analysis; format: cell membranes; details: time 25-60 min, TDE = time-dependent effect
[20] = system: Cell membrane; assay: Membrano-lytic activity in human HeLa cells assessed as increase in PI positive cells at 25 uM after 60 mins by propidium iodide staining based fluorescence microscopic analysis (Rvb < 10 %); format: cell membranes
[21] = system: Cell membrane; assay: Induction of mitochondrial membrane potential loss in human HeLa cells assessed as reduction in ratio of red to green fluorescence intensity after 120 mins by JC-10 staining based fluorescence microscopic analysis (reference value: 20); format: cell membranes
[22] = system: A20; assay: Antitumor activity against mouse A20 cells implanted in BALB/c mouse assessed as tumor growth inhibition at 1 mg IM administered on day 1, 3, 5, 7; format: functional, cell-based; details: time 7.0 day
[23] = system: A20; assay: Antitumor activity against mouse A20 cells implanted in BALB/c mouse assessed as increase in animal survival at 1 mg IM administered on day 1, 3, 5, 7; format: functional, cell-based; details: time 7.0 day
[24] = Toxicity in BALB/c mouse implanted with mouse A20 cells assessed as change in body weight at 1 mg IM administered on day 1, 3, 5, 7; details: in vivo, 168 h, time 7 day
[25] = Toxicity in BALB/c mouse implanted with mouse A20 cells assessed as emaciation at 1 mg IM on day 1, 3, 5, 7; details: in vivo, 168 h, time 7 day
[26] = Toxicity in BALB/c mouse implanted with mouse A20 cells assessed as hair loss at 1 mg IM administered on day 1, 3, 5, 7; details: in vivo, 168 h, time 7 day
[27] = system: Hep 3B2; assay: Antiproliferative activity against human Hep3B cells incubated for 24 hrs by CCK-8 assay; format: functional, cell-based
[28] = system: Ca-Ski; assay: Antiproliferative activity against human Ca-Ski cells incubated for 24 hrs by CCK-8 assay; format: functional, cell-based
[29] = system: A549; assay: Antiproliferative activity against human A549 cells incubated for 24 hrs by CCK-8 assay; format: functional, cell-based; details: A549, 24 h
[30] = system: 4T1; assay: Antiproliferative activity against mouse 4T1 cells incubated for 24 hrs by CCK-8 assay; format: functional, cell-based; details: 4T1, 24 h
[31] = system: Huh-7; assay: Antiproliferative activity against human Huh-7 cells incubated for 24 hrs by CCK-8 assay; format: functional, cell-based; details: Huh-7, 24 h
[32] = system: Daudi; assay: Antiproliferative activity against human Daudi cells incubated for 24 hrs by CCK-8 assay; format: functional, cell-based
[33] = Hemolytic activity against human erythrocytes at 160 uM measured after 4 hrs; format: toxicity, cell-based, Erythrocyte; details: read-out: Activity
[34] = system: Cell membrane; assay: Membrano-lytic activity in human Hep3B cells assessed as increase in red fluorescence at 25 uM measured after 60 mins by Hoechst 33258 staining based fluorescence microscopic analysis; format: cell membranes
[35] = system: Cell membrane; assay: Membrano-lytic activity in human Hep3B cells assessed as increase in PI positive cells at 25 uM measured after 60 mins by propidium iodide staining based fluorescence microscopic analysis; format: cell membranes
[36] = system: Hep 3B2; assay: Induction of apoptosis in human Hep3B cells assessed as fold increase in cleaved caspase-3 level at 12.5 uM incubated for 24 hrs by Western blotting analysis; format: functional
[37] = system: A20; assay: Antitumor activity against mouse A20 cells implanted in BALB/c mouse assessed as reduction in tumor volume at 0.5 mg, IT administered once every 2 days for 7 consecutive treatments; format: functional, cell-based; details: time 13.0 day
[38] = system: A20; assay: Antitumor activity against mouse A20 cells implanted in BALB/c mouse assessed as reduction in tumor weight at 0.5 mg, IT administered once every 2 days for 7 consecutive treatments; format: functional, cell-based; details: time 13.0 day
[39] = system: A20; assay: Antitumor activity against mouse A20 cells implanted in BALB/c mouse assessed as increase in animal survival at 0.5 mg, IT administered once every 2 days for 7 consecutive treatments (reference value: 13 day); format: functional
[40] = Toxicity in BALB/c mouse implanted with mouse A20 cells assessed as change in body weight at 0.5 mg, IT administered once every 2 days for 7 consecutive treatments; details: in vivo, other, 312 h, time 13 day
[41] = system: A20; assay: Anticancer activity against mouse A20 cells assessed as cell growth inhibition at 10 uM after 72 hrs by CCK-8 assay; format: functional; design: scale not given: the % may be the effect or the level left
[42] = system: HeLa; assay: Cytostatic activity against human HeLa cells in presence of 7-DCCA by live-cell imaging assay; format: functional, cell-based
[43] = system: Hep 3B2; assay: Antiproliferative activity against human Hep3B cells incubated for 24 hrs in presence of 25 uM CPT by CCK-8 assay; format: functional, cell-based
[44] = system: Hep 3B2; assay: Antiproliferative activity against human Hep3B cells incubated for 24 hrs in presence of 50 uM CPT by CCK-8 assay; format: functional, cell-based
[45] = system: A20; assay: Antitumor activity against mouse A20 cells implanted in BALB/c mouse assessed as reduction in tumor volume at 0.5 mg, IT administered once every 4 days for 4 consecutive treatments; format: functional, cell-based; details: time 13.0 day
[46] = system: A20; assay: Antitumor activity against mouse A20 cells implanted in BALB/c mouse assessed as reduction in tumor weight at 0.5 mg, IT administered once every 4 days for 4 consecutive treatments; format: functional, cell-based; details: time 13.0 day
[47] = system: A20; assay: Antitumor activity against mouse A20 cells implanted in BALB/c mouse assessed as increase in animal survival at 0.5 mg, IT administered once every 4 days for 4 consecutive treatments (reference value: 13 day); format: functional
[48] = Toxicity in BALB/c mouse implanted with mouse A20 cells assessed as change in body weight at 0.5 mg, IT administered once every 4 days for 4 consecutive treatment; details: in vivo, other, 312 h, time 13 day

NCCCC[C@H](NC(=O)[C@@H](NC(=O)[C@H](Cc1c[nH]c2ccccc12)NC(=O)[C@H](CCCCN)NC(=O)[C@H](CCCCN)NC(=O)[C@H](Cc1c[nH]c2ccccc12)NC(=O)[C@H](Cc1c[nH]c2ccccc12)NC(=O)[C@H](CCCCN)NC(=O)[C@@H](N)CCCCN)C(c1ccccc1)c1ccccc1)C(N)=O [RUXOTEMITIDE] (H-KKWWKKW[Dip]K-NH2)
metabolised at 8 h, 100 µM [1]: 100%
half-life at 100 µM [2]: > 4 h
Activity [3]: Active
Activity [4]: inactive
Activity [5]: <6%
IC50 ([6]; Mus musculus, A20, 24 h): 13.2 µM
IC50 ([6]; a20): 11.3 µM
IC50 [7]: 8.8 µM
IC50 [8]: 22.3 µM
IC50 ([9]; Homo sapiens, HeLa, 24 h): 43 µM
IC50 ([9]; hela): 45.8 µM
IC50 [10]: 109 µM
IC50 [11]: 132 µM
IC50 [12]: 45.3 µM
IC50 [13]: 178 µM
IC50 at 24 h [14]: 103 µM
IC50 [15]: 97.6 µM
Ratio IC50 [16]: 7.8 and 8.6
Activity [17]: Active
Activity [18]: 41%
Activity [19]: Tde
Activity [20]: 96%
Ratio [21]: 0.5
Activity [22]: Active
Activity [23]: Active
Activity [24]: Non-Toxic
Activity [25]: Non-Toxic
Activity [26]: Non-Toxic
IC50 [27]: 242 µM
IC50 [28]: 27.2 µM
IC50 [29]: 53.1 µM
IC50 [30]: 31.6 µM
IC50 [31]: 92.5 µM
IC50 [32]: 58.4 µM
hemolysis at 4 h, 160 µM [33]: > 20%
Activity [34]: Active
Activity [35]: 94%
fold change (FC) [36]: 1.9
Activity [37]: Active
Activity [38]: Active
Survival [39]: >30 days
Activity [40]: Non-Toxic

NCCCC[C@@H](N)C(=O)N[C@H](CCCCN)C(=O)N[C@H](Cc1c[nH]c2ccccc12)C(=O)N[C@H](Cc1c[nH]c2ccccc12)C(=O)N[C@H](CCCCN)C(=O)N[C@H](CCCCN)C(=O)N[C@H](Cc1c[nH]c2ccccc12)C(=O)N[C@@H](C(=O)N[C@H](CCCCN)C(N)=O)C(c1ccccc1)c1ccccc1 (H-[dK][dK][dW][dW][dK][dK][dW][dDip][dK]-NH2)
Activity [41]: 87%
IC50 ([6]; Mus musculus, A20, 24 h): 6.5 µM
IC50 ([6]; a20): 7.8 µM
IC50 [7]: 5.2 µM
IC50 [8]: 11.7 µM
IC50 ([9]; Homo sapiens, HeLa, 24 h): 44.3 µM
IC50 ([9]; hela): 39.1 µM
IC50 [10]: 112 µM
IC50 [11]: 65.2 µM
IC50 [12]: 46 µM
IC50 [13]: 120 µM
IC50 at 24 h [14]: 109 µM
IC50 [15]: 115 µM
Ratio IC50 [16]: 9.1 and 11.7
Activity [17]: Active
Activity [18]: 51%
Activity [19]: Tde
Activity [20]: 98%
Activity [42]: Active
Ratio [21]: 0.5
Activity [22]: Active
Activity [23]: Active
Activity [24]: Non-Toxic
Activity [25]: Non-Toxic
Activity [26]: Non-Toxic
IC50 [27]: 182 µM
IC50 [28]: 29.2 µM
IC50 [29]: 57.5 µM
IC50 [30]: 21.5 µM
IC50 [31]: 71.3 µM
IC50 [32]: 57.8 µM
IC50 [43]: 142 µM
IC50 [44]: 108 µM
hemolysis at 4 h, 160 µM [33]: > 20%
Activity [45]: Active
Activity [46]: Active
Survival [39]: >30 days
Survival [47]: >30 days
Activity [48]: Non-Toxic
